From PMC8894010, “Synthesis, Carbonic Anhydrase II/IX/XII Inhibition, DFT, and Molecular Docking Studies of Hydrazide-Sulfonamide Hybrids of 4-Methylsalicyl- and Acyl-Substituted Hydrazide” (BioMed Research International, 2022)

Key:
CA IX = molecular target: T1, CA IX (Homo sapiens, UniProt Q16790); test: Carbonic anhydrase inhibition assay (p-nitrophenyl acetate hydrolysis, colorimetric, 348 nm); type: biochemical; settings: mean of three independent experiments ± SEM; pH 7.6; read-out: CAIX Ki (μM ± SEM)
T1 construct: His-tag; made in house
Method: All three isozymes, CA II, CA IX, and CA XII, were produced using the same protocol done for each. Transformation was the first step to be done in which the plasmids and the off-spark plasmids of CA II, CA IX, and CA XII were transformed into competent E. coli bacteria using the heat shock method, cells were grown in agar, then a colony was selected for further growth in LB broth, cells were collected by centrifugation according to the methods described in [25], and the plasmid was extracted according to the kit protocol using SanPrep column plasmid miniprep kit obtained from Sangon Biotech. […] Six hours later, the media were aspirated, and the fresh prepared (+10% FBS and 1% pen/strep) media were added to the cells. On the next day, the cells were inspected for their viability, and new media were used for the selection process which were DMEM, FBS, and hygromycin B using a final concentration of 200 μg/mL. The cells were grown in the selective media, and when they reached 70 to 80% confluency, the offs-park plasmid transfected cells were checked under a fluorescent microscope to insure the production of the protein; then, the cells transfected with the His-tagged plasmid were collected for making the cell lysate following the method described by by centrifugation of the cells at 2000 rpm for 5 minutes, washed with PBS, and again centrifuged; the pellet was then suspended in the cell lysis buffer, incubated in ice for 15 minutes, and centrifuged again at 10000 g at 4°C for 15 minutes, and here, the pellet was discarded and the supernatant was collected for purification using Ni-NTA Sepharose column according to the manufacturer's protocol. And the eluting solution was quantified using the protein quantification technique Biuret assay and Bradford reagent for protein quantification.
Carbonic anhydrase inhibition activity was carried out using an already developed method with slight modification. The principle of the current method is centered on that “CA hydrolyses the p-nitrophenyl acetate to p-nitrophenol” which is determined by spectrophotometrically. Reaction mixture contained 60 μL of 50 mM Tris-sulfate buffer (pH 7.6 containing 0.1 mM ZnCl2) and 10 μL (0.5 mM) test compound in 1% DMSO. […] Preparation of p-nitrophenyl acetate was done by taking 6 mM stock using <5% acetonitrile in buffer and was used fresh. Each well was filled with 20 μL solution to attain […] concentration. The total reaction volume was made to 100 μL.

CA II = CA II (Homo sapiens, UniProt P00918); test: as above
Method: (§1) Carbonic anhydrase inhibition activity was carried out using an already developed method [19] with slight modification. The principle of the current method is centered on that “CA hydrolyses the p-nitrophenyl acetate to p-nitrophenol” which is determined by spectrophotometrically. Reaction mixture contained 60 μL of 50 mM Tris-sulfate buffer (pH 7.6 containing 0.1 mM ZnCl2) and 10 μL (0.5 mM) test compound in 1% DMSO. […] Preparation of p-nitrophenyl acetate was done by taking 6 mM stock using <5% acetonitrile in buffer and was used fresh. Each well was filled with 20 μL solution to attain 0.6 mM concentration. The total reaction volume was made to 100 μL.

CA XII = CA XII (Homo sapiens, UniProt O43570); test: as above; settings: for CAXII % inhibition: given instead of Ki where inhibition <50%, test compound 10 μL (0.5 mM), b52 says 1.0 mM
Chain of CA XII (O43570 25-354): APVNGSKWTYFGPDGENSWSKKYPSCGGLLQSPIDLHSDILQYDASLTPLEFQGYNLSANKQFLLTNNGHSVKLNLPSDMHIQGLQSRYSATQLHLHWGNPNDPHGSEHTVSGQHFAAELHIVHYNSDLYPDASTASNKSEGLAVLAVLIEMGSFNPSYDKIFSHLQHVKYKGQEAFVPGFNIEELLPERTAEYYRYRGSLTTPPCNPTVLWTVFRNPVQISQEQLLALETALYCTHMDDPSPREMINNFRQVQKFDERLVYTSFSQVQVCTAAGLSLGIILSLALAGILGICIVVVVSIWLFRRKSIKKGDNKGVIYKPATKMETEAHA
Method: as §1

Row | Structure (SMILES) | Ki (CA IX) | Ki (CA II) | CAXII % inhibition (CA XII) | melting point | Ki (CA XII)
1 | COc1cc(C)ccc1C(=O)NNS(=O)(=O)c1ccc([N+](=O)[O-])cc1 [Compound 19, N′-(2-Methoxy-4-methylbenzoyl)-4-nitrobenzenesulfonohydrazide] | 0.58 ± 0.04 µM | 680 ± 20 nM | 44.4% | 220 to 222 °C | 
2 | COc1cc(C)ccc1C(=O)NNS(=O)(=O)c1ccc(Br)cc1 [Compound 20, 4-Bromo-N′-(2-methoxy-4-methylbenzoyl)benzenesulfonohydrazide] | 0.56 ± 0.05 µM | 660 ± 40 nM |  | 168 to 169 °C | 990 ± 100 nM
3 | COc1cc(C)ccc1C(=O)NNS(=O)(=O)c1ccc(C)cc1 [Compound 22, N′-(2-Methoxy-4-methylbenzoyl)-4-methylbenzenesulfonohydrazide] | 1.04 ± 0.38 µM | 680 ± 10 nM | 42.89% | 161 to 163 °C | 
4 | COc1ccc(S(=O)(=O)NNC(=O)c2ccc(C)cc2O)cc1 [Compound 26, N′-(2-Hydroxy-4-methylbenzoyl)-4-methoxybenzenesulfono hydrazide] | 0.91 ± 0.09 µM | 960 ± 90 nM |  | 168 to 169 °C | 580 ± 40 nM
5 | COc1ccc(S(=O)(=O)NNC(=O)Cc2cccc(OC)c2)cc1 [Compound 34, 4-Methoxy-N′-(2-(3-methoxyphenyl)acetyl)benzenesulfonohydrazide] | 0.65 ± 0.03 µM | 1810 ± 30 nM |  | 146 to 147 °C | 220 ± 60 nM
6 | COc1cccc(CC(=O)NNS(=O)(=O)c2ccc(C)cc2)c1 [Compound 35, N′-(2-(3-Methoxyphenyl)acetyl)-4-methylbenzenesulfonohydrazide] | 1.18 ± 0.04 µM | 3200 ± 140 nM |  | 143 to 144 °C | 340 ± 10 nM
7 | COc1cccc(CC(=O)NNS(=O)(=O)c2ccc3ccccc3c2)c1 [Compound 36, N′-(2-(3-Methoxyphenyl)acetyl)naphthalene-2-sulfonohydrazide] | 0.6 ± 0.01 µM | 920 ± 100 nM | 48.88% | 139 to 141 °C | 

Next, values leading:

Row | Ki (CA IX) | Ki (CA II) | CAXII % inhibition (CA XII) | melting point | Ki (CA XII) | Structure (SMILES)
8 | 0.19 ± 0.02 µM | 610 ± 10 nM |  | 159 to 162 °C | 1220 ± 10 nM | COc1ccc(S(=O)(=O)NNC(=O)c2ccc(C)cc2OC)cc1 [Compound 21, 4-Methoxy-N′-(2-methoxy-4-methylbenzoyl)benzenesulfono hydrazide]
9 | 0.19 ± 0.03 µM | 940 ± 20 nM |  | 186 to 187 °C | 750 ± 70 nM | COc1cc(C)ccc1C(=O)NNS(=O)(=O)c1ccc2ccccc2c1 [Compound 23, N′-(2-Methoxy-4-methylbenzoyl)naphthalene-2-sulfonohydrazide]
10 | 0.54 ± 0.06 µM | 340 ± 10 nM |  | 211 to 213 °C | 520 ± 40 nM | Cc1ccc(C(=O)NNS(=O)(=O)c2ccc([N+](=O)[O-])cc2)c(O)c1 [Compound 24, N′-(2-Hydroxy-4-methylbenzoyl)-4-nitrobenzenesulfonohydrazide]
11 | 0.33 ± 0.03 µM | 910 ± 20 nM |  |  | 350 ± 40 nM | Cc1ccc(C(=O)NNS(=O)(=O)c2ccc(Br)cc2)c(O)c1 [Compound 25, 4-Bromo-N′-(2-hydroxy-4-methylbenzoyl)benzenesulfonohydrazide]
12 | 0.51 ± 0.04 µM | 1110 ± 40 nM |  | 183 to 185 °C | 430 ± 80 nM | Cc1ccc(S(=O)(=O)NNC(=O)c2ccc(C)cc2O)cc1 [Compound 27, N′-(2-Hydroxy-4-methylbenzoyl)-4-methylbenzenesulfonohydrazide]
13 | 0.55 ± 0.01 µM | 460 ± 10 nM |  | 205 to 206 °C | 1020 ± 80 nM | Cc1ccc(CC(=O)NNS(=O)(=O)c2ccc([N+](=O)[O-])cc2)cc1 [Compound 28, 4-Nitro-N′-(2-(p-tolyl)acetyl)benzenesulfonohydrazide]
14 | 0.33 ± 0.02 µM | 730 ± 20 nM |  | 156 to 157 °C | 550 ± 10 nM | Cc1ccc(CC(=O)NNS(=O)(=O)c2ccc(Br)cc2)cc1 [Compound 29, 4-Bromo-N′-(2-(p-tolyl)acetyl)benzenesulfonohydrazide]
15 | 0.33 ± 0.03 µM | 740 ± 40 nM |  | 133 to 134 °C | 130 ± 10 nM | COc1ccc(S(=O)(=O)NNC(=O)Cc2ccc(C)cc2)cc1 [Compound 30, 4-Methoxy-N′-(2-(p-tolyl)acetyl)benzenesulfonohydrazide]
16 | 0.29 ± 0.02 µM | 670 ± 10 nM |  | 143 to 144 °C | 400 ± 90 nM | Cc1ccc(CC(=O)NNS(=O)(=O)c2ccc(C)cc2)cc1 [Compound 31, 4-Methyl-N′-(2-(p-tolyl)acetyl)benzenesulfonohydrazide]
17 | 0.32 ± 0.01 µM | 670 ± 60 nM | 49.25% | 158 to 159 °C |  | COc1cccc(CC(=O)NNS(=O)(=O)c2ccc([N+](=O)[O-])cc2)c1 [Compound 32, N′-(2-(3-Methoxyphenyl)acetyl)-4-nitrobenzenesulfonohydrazide]
18 | 0.39 ± 0.03 µM | 680 ± 50 nM |  | 153 to 154 °C | 170 ± 10 nM | COc1cccc(CC(=O)NNS(=O)(=O)c2ccc(Br)cc2)c1 [Compound 33, 4-Bromo-N′-(2-(3-methoxyphenyl)acetyl)benzenesulfonohydrazide]
